Measurements as given in patent US20120318750A1, “METHODS AND COMPOSITIONS FOR COMPLEX BINDING OF METAL IONS” (ChemseQ International AB, priority 2009, published 2012).

Experiments:
[1] = Flotation of copper ions with sequestering agent in a flotation cell, metal analysis of foam; conditions: 1 mg copper as copper sulphate, sequestering agent:metal 1.2:1, pH 5.5, flotation approx. 30 min
[2] = Flotation of manganese ions with sequestering agent in a flotation cell, metal analysis of foam; conditions: 1 mg manganese as manganese sulphate, sequestering agent:metal 1.2:1, pH 5.5, flotation approx. 30 min
Source text: In order to investigate the separability of a sequestering agent according to the invention a small flotation cell was used. This flotation cell has a volume of approximately 1.6 l, a height of 315 mm and an inner diameter of 80 mm. Compressed air used to form the foam is led through a porous sintered glass filter of diameter 60 mm with a nominal porosity of 10-16 μm (“porosity 4”) mounted at the bottom of the flotation cell. At the top of the flotation cell a cylinder of an inner diameter of 30 mm and a height of 415 mm, with an outlet placed at 72 mm from the bottom, is mounted. The outlet is used to collect the foam and thereby the chelate according to the invention. At the top of the latter cylinder an adjustable valve is mounted to be able to better control the foaming and to direct the foam to the outlet.
was prepared from 2-aminoethanol, tert-butyl bromoacetate and tert-butyl 2-aminotetradecanoate as main ingredients using conventional techniques and was therafter mixed in 500 ml deionised water with 1 mg of manganese in the form of manganese sulphate (in a molar ratio of 1.2:1=sequestering agent: manganese sulphate) and a flotation agent (N,N-dimethyldodecylamine N-oxide, in a molar ratio of 10:1=flotation agent:sequestering agent).
The pH-value of the solution was adjusted to pH 5.5 with 0.1 M sodium hydroxide solution or 0.1 M hydrogen chloride solution. […]

[3] = Precipitation/recovery from a copper(II) sulfate solution by electrolysis, then acidification (Experimental Example 6); conditions: electrolysis pH 12, 50 min, 300-350 mA
Method: The recovery of 2-dodecyl-3-carboxymethyl-3-azapentane diacid was performed in a two-step procedure.
(§1) In the first stage metal ions was removed from the solution by electrolysis at a specified pH and current intensity: The equipment to perform the electrolysis consisted of a Manson EP-601 rectifier and two platinum electrodes in form of a spring (anode) and a basket (cathode).
To a solution of 2-dodecyl-3-carboxymethyl-3-azapentane diacid and copper in the form of copper(II) sulfate (30 ml, in a molar ratio of 1.2:1=sequestering agent: copper(II) sulfate, [sequestrent]=10.5 mM, [Cu^2+]=655 ppm) in a beaker was sodium sulphate (corresponding to 50 mg/l) added, in order to receive wished current intensity. Solutions of 1 M aqueous sodium hydroxide was added to adjust the pH to 12. The total volume of the solution was 150 ml. The electrolysis was performed during 50 min. at a current intensity of 300-350 mA.
In the second step the electrolysis solution was acidified with 1 M aqueous hydrogen chloride to pH=2.4. The precipitated material was removed by filtration (glass filter—Schott u.Gen Mainz 1G2) and dried in a vacuum chamber at 0.8 mbar for 24 hours.
(§2) 99.6 mg precipitate was obtained. Organic analyses were made with the aid of an ESI-MS (recorded on a Micromass Quattro II mass spectrometer coupled with a Harvard Apparatus Pump 11 syringe pump directly into the ESI source of the mass spectrometer at a flow rate of 6 μl/min. The data was processed using MassLynx 4.0 software) in positive and negative mode, and NMR with a Varian 500 instrument. The precipitate contained exclusively of 2-dodecyl-3-carboxymethyl-3-azapentane diacid.
Metal analyses were made with the aid of a Perkin-Elmer AA300 atomic absorption spectrometer.

[4] = Solubility of sequestering agent in a copper(II) chloride solution on stepwise acidification; assay type: physicochemical; conditions: 5.66 mM sequestrent, 300 ppm copper, room temperature
Method: A stock solution of 4-dodecyl-3,6,9-tri(carboxymethyl)-3,6,9-triazaundecane diacid and copper in the form of copper(II) chloride (20 ml, in a molar ratio of 1.2:1=sequestering agent: copper(II) chloride, [Cu^2+]=900 ppm, pH=4.5) was diluted with milliQ-water to a total volume of 60 ml in a beaker, corresponding to a solution with an initial sequestrent and copper concentration of 5.66 mM and 300 ppm, respectively. To this solution 2 M aqueous hydrogen chloride was added stepwise, under magnetical stirring at room temperature, to follow the solubility behavior of 4-dodecyl-3,6,9-tri(carboxymethyl)-3,6,9-triazaundecane diacid.

[5] = Precipitation/recovery from a copper(II) chloride solution by electrolysis with cation exchange membrane, then acidification (Experimental Example 7); conditions: electrolysis starting pH 4.1, 60 min, 250-300 mA
Method: The recovery of 4-dodecyl-3,6,9-tri(carboxymethyl)-3,6,9-triazaundecane diacid was performed in a two-step procedure.
as §1, with “intensity.” for “intensity:”, “EP-60.1” for “EP-601”, “(cathode). The electrodes were separated with a cationic exchange membrane (CMI-7000 Cation exchange membranes—Membranes International INC.)” for “(cathode).”
To a solution of 4-dodecyl-3,6,9-tri(carboxymethyl)-3,6,9-triazaundecane diacid and copper in the form of copper(II) chloride (30 ml, in a molar ratio of 1.2:1=sequestering agent: copper(II) chloride, [Cu^2+]=900 ppm, pH=4.5) in a beaker was sodium sulphate (corresponding to 0.1 M), in order to receive wished current intensity. The pH of the starting solution was 4.1. The total volume of the solution was 300 ml. The electrolysis was performed during 60 min. at a current intensity of 250-300 mA.
In the second step the electrolysis solution was acidified with 1 M aqueous hydrogen chloride to pH=2.4. The precipitated material was removed by filtration (glass filter—Schott u.Gen Mainz 1G2) and dried in a vacuum chamber at 0.8 mbar for 22 hours.
as §2, with “198.7” for “99.6”, “μL/min.” for “μl/min.”, “4-dodecyl-3,6,9-tri(carboxymethyl)-3,6,9-triazaundecane” for “2-dodecyl-3-carboxymethyl-3-azapentane”, “diacid. Metal analyses were made with the aid of a Perkin-Elmer AA300 atomic absorption spectrometer.” for “diacid.”

[6] = Precipitation/recovery of sequestering agent from a copper(II) chloride solution by acidification to pH 1.8; conditions: acidified to pH=1.8, 5.66 mM sequestrent, 300 ppm copper
Method: A stock solution of 4-dodecyl-3,6,9-tri(carboxymethyl)-3,6,9-triazaundecane diacid and copper in the form of copper(II) chloride (20 ml, in a molar ratio of 1.2:1=sequestering agent: copper(II) chloride, [Cu^2+]=900 ppm, pH=4.5) was diluted with milliQ-water to a total volume of 60 ml in a beaker, corresponding to a solution with an initial sequestrent- and copper concentration of 5.66 mM and 300 ppm, respectively. To this solution 2 M aqueous hydrogen chloride was added under magnetical stirring at room temperature to pH=1.8. A light blue precipitate was removed by filtration (P3 glass filter) leaving a colourless transparent filtrate. The light blue precipitate was dried in a vacuum chamber at 0.8 mbar for 19 hours resulting in a light blue solid.
as §2, with “270” for “99.6”, “mode.” for “mode, and NMR with a Varian 500 instrument. The precipitate contained exclusively of 2-dodecyl-3-carboxymethyl-3-azapentane diacid.”
The precipitate contained exclusively of 4-dodecyl-3,6,9-tri(carboxymethyl)-3,6,9-triazaundecane diacid and complexed sequestering agent. […] Metal analyses were made with the aid of a Perkin-Elmer AA300 atomic absorption spectrometer. […]

CCCCCCCCCCCCC(C(=O)O)N(CCN(CC(=O)O)CC(=O)O)CC(=O)O (stereo not drawn) [2-dodecyl-3,6-di(carboxymethyl)-3,6-diazaoctane diacid]
added copper found in the foam [1]: ~65% | added manganese found in the foam [2]: About 35%

CCCCCCCCCCCCC(C(=O)O)N(CC(=O)O)CC(=O)O (stereo not drawn) [2-dodecyl-3-carboxymethyl-3-azapentane diacid]
added copper found in the foam [1]: ~70% | copper found on the cathode [3]: 99.4% | copper found in the filtrate ([3]; then acidified to pH=2.4): 0.1% | copper found in the precipitate ([3]; then acidified to pH=2.4): 0.5% | added manganese found in the foam [2]: About 10%

CCCCCCCCCCCCC(CN(CCN(CC(=O)O)CC(=O)O)CC(=O)O)N(CC(=O)O)CC(=O)O (stereo not drawn) [4-dodecyl-3,6,9-tri(carboxymethyl)-3,6,9-triazaundecane diacid]
solubility observation ([4]; pH<0.5): A clear blue aqueous solution | solubility observation ([4]; pH=2.8-0.5): Precipitated material is observed | solubility observation ([4]; pH=4.5-2.8): A clear blue aqueous solution | copper found on the cathode [5]: 99.8% | copper found in the filtrate ([5]; then acidified to pH=2.4): 0.1% | copper found in the precipitate ([5]; then acidified to pH=2.4): 0.1% | copper found in the filtrate [6]: 1% | copper found in the precipitate [6]: 99%
